ChEMBL document CHEMBL5325451, “Structurally Diverse Triterpene-26-oic Acids as Potential Dual ACL and ACC1 Inhibitors from the Vulnerable Conifer Keteleeria fortunei” (J Nat Prod, 2023)

Columns and labels:
[1] = target: T1, ATP-citrate synthase (Homo sapiens, UniProt P53396); test: Inhibition of ACL (unknown origin)
T1 sequence (P53396 whole entry): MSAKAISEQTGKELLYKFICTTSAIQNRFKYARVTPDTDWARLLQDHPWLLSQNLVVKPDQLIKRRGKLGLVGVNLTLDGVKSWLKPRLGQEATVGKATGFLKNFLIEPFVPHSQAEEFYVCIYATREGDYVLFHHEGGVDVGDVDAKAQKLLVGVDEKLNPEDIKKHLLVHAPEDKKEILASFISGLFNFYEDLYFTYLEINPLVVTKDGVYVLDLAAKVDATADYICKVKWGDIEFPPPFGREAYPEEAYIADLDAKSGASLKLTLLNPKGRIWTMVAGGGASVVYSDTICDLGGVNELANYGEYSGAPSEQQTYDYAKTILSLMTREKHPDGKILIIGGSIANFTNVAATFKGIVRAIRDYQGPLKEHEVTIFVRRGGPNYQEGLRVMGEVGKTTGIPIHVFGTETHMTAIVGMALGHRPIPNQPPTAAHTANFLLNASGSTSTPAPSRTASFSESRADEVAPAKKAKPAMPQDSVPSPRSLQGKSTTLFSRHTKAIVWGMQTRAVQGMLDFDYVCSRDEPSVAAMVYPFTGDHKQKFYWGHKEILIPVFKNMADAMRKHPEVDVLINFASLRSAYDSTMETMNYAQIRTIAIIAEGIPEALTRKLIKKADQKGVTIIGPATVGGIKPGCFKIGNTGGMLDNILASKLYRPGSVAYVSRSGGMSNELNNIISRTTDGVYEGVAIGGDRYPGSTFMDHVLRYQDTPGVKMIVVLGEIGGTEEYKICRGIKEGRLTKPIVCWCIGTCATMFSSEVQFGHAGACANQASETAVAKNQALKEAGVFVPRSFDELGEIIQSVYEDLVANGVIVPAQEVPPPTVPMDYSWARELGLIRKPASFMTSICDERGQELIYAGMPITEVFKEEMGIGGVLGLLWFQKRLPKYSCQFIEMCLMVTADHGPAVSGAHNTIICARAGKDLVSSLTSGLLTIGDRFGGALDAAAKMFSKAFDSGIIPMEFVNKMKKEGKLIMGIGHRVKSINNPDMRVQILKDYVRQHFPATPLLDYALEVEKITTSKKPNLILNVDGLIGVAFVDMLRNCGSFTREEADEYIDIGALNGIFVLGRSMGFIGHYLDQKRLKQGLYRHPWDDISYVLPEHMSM

[2] = target: T1, ATP-citrate synthase; test: Inhibition of ACL (unknown origin) incubated for 30 mins in presence of ATP by ADP-Glo kinase assay
[3] = target: Acetyl-CoA carboxylase 1 (Homo sapiens, UniProt Q13085); test: Inhibition of ACC1 (unknown origin) preincubated for 30 mins followed by ATP addition measured for 60 mins by ADP-Glo luminescence assay

| Compound | IC50 [1] [µM] | IC50 [2] [µM] | IC50 [3] [µM] |
| --- | --- | --- | --- |
| COc1ccc(-c2ccccc2)cc1NS(=O)(=O)c1cc(Cl)cc(Cl)c1O | 0.5 |  |  |
| CC(=O)O[C@@H]1CC[C@]2(C)[C@@H]3CC[C@]4(C)C(=CC[C@@]4(C)[C@H](C)Cc4cc(C(=O)O)co4)C3=CC[C@H]2C1(C)C |  | 5.7 | 10.2 |
| C[C@H](Cc1cc(C(=O)O)co1)[C@]1(C)CC[C@]2(C)C1=CC[C@@]13C[C@@]14CC[C@@H](O)C(C)(C)[C@@H]4CC[C@H]32 |  | 6.6 | 7.5 |
| C[C@H](Cc1cc(C(=O)O)co1)[C@H]1CC[C@@]2(C)C3=CC[C@H]4C(C)(C)[C@H](O)CC[C@]4(C)[C@@H]3CC[C@]12C |  | 8.8 | 8.9 |
| C[C@H](CC/C=C(\CO)C(=O)O)[C@H]1CC[C@@]2(C)[C@@H]3CC[C@H]4C(C)(C)[C@H](O)CC[C@@]45C[C@@]35CC[C@]12C |  | 11.4 | 8.4 |
| C/C(=C\CC[C@@H](C)[C@H]1CC[C@@]2(C)[C@@H]3CC[C@H]4C(C)(C)[C@H](O)CC[C@@]45C[C@@]35CC[C@]12C)C(=O)O [ISOMANGIFEROLIC ACID] |  | 7.6 | 10.5 |
